Here are results for two molecules from patent publication US10815206B2, “RIP1 inhibitory compounds and methods for making and using the same” (priority 2018, dated 2020).

For experiment [1], the system named is TNF-alpha induced hypothermia. The experiment can be described thus: Acute hypothermia mouse model (TNF-alpha/zVAD-FMK induced hypothermia). In kind it is in vivo. To be noted: mice, oral gavage. As for the experimental part: In this example, an acute hypothermia mouse model assay was used to evaluate the ability of compounds disclosed herein to inhibit TNF-alpha induced hypothermia.
Female C57BL/6 mice are randomly grouped and weighed on Day −1. On the day of the study (Day 0), mice are administered vehicle or test article by oral gavage. Fifteen minutes after oral administration of test agents, each mouse is administered an intraperitoneal (IP) injection of solution containing recombinant human tumor necrosis factor alpha (TNF-α, 25.0 μg) and zVAD-FMK (200 μg). Body temperature is measured at 0 hours (before IP injections) and every hour via rectal probe temperature measuring device. Three (3) hours after IP injections of TNF-α and zVAD/FMK, mice are euthanized by CO2 asphyxiation and blood is collected via cardiac puncture. Serum and plasma are harvested for determination of cytokine and compound levels, respectively. Separate groups of mice (satellite mice) are included for the determination of compound levels in plasma at the time of administration of TNFa/zVAD-FMK.
(S)-5-benzyl-N-(5-methyl-4-oxo-2,3,4,5-tetrahydrobenzo[b][1,4]oxazepin-3-yl)-4H-1,2,4-triazole-3-carboxamide (WO 2014/125444), having a structure as illustrated below, was used as a comparative compound and was examined using a similar protocol as described by WO 2014/125444.

The test system of experiment [2] is TNF-alpha induced hypothermia. To be noted: dose of 30 mg/kg, according to WO 2014/125444; cited from earlier work.

Molecules are shown by their SMILES. Like-named read-outs stand apart in the source and are kept apart here.

As to `CN1C(=O)[C@@H](NC(=O)c2n[nH]c(Cc3ccccc3)n2)COc2ccc(C#CC(C)(C)O)cc21` [Compound I-30, (S)-5-benzyl-N-(7-(3-hydroxy-3-methylbut-1-yn-1l-yl)-5-methyl-4-oxo-2,3,4,5-tetrahydrobenzo[b][1,4]oxazepin-3-yl)-1H-1,2,4-triazole-3-carboxamide], the “inhibition of TNF-alpha induced hypothermia” value in experiment [1] (dose of 5 mg/kg) is reported as “greater than 85%”.

Regarding `CN1C(=O)[C@@H](NC(=O)c2nnc(Cc3ccccc3)[nH]2)COc2ccccc21` [comparative compound, (S)-5-benzyl-N-(5-methyl-4-oxo-2,3,4,5-tetrahydrobenzo[b][1,4]oxazepin-3-yl)-4H-1,2,4-triazole-3-carboxamide], the “inhibition of TNF-alpha induced hypothermia” value was 70% in experiment [1] (30 mg/kg, in the inventors hands) and 93% in experiment [2].
